Earlier results as cited in paper PMC4177305 (ChemMedChem, 2014).
pKd: −log10 of the molar value.

Columns and labels:
[1] = in humans
human serum albumin = human serum albumin (Homo sapiens, UniProt P02768); details: reported affinity of MS-325 to human serum albumin
[2] = system: human serum albumin (HSA); details: displaces site II ligands rather than site I ligands

human serum albumin, sequence (P02768 25-609): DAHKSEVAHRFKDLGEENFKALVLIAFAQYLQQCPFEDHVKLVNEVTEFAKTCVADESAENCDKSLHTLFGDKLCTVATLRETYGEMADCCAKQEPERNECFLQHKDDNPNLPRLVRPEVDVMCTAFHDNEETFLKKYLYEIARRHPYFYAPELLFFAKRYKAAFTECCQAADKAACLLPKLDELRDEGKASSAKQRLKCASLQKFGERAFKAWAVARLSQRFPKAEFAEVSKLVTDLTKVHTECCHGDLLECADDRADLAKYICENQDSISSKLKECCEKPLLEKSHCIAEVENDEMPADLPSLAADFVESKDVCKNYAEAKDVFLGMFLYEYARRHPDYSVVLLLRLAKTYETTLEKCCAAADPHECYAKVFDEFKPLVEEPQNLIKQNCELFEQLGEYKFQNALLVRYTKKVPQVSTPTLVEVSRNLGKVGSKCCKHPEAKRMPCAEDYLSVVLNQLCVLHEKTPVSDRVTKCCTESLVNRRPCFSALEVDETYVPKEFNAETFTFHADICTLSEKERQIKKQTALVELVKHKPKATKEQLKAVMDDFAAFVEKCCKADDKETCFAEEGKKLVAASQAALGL

intravascular half-life [1]: 18.5 ± 3 h
pKd (human serum albumin): 3.79
albumin binding site [2]: binds primarily to site II
SMILES: O=C([O-])CN(CCN(CC(=O)[O-])CC(COP(=O)([O-])OC1CCC(c2ccccc2)(c2ccccc2)CC1)N(CC(=O)[O-])CC(=O)[O-])CC(=O)[O-].[Gd+3].[Na+].[Na+].[Na+] (stereo not drawn) [MS-325, gadofosveset trisodium]
